pIC50: −log10 of the molar value. Values after ≈ are worked out from the molar mass of the structure shown.
Legend:
[1] = molecular target: USP1 (Recombinant Human His6-USP1/His6-UAF1 Complex Protein) (Homo sapiens (Human), UniProt O94782); assay: In vitro activity assay for USP1 (Ub-CHOP2-Reporter deubiquitination assay); type: biochemical; conditions: 0.5 h incubation at room temperature, read-out: In vitro inhibitory activity of USP1 IC50
Outline: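 His6-USP1/His6-UAF1 complex was mixed with compound in 20 mM Tris-HCl pH 8.0, 2 mM CaCl2, 2 mM β-mercaptoethanol and 0.05% CHAPS. Ub-CHOP2 reporter system plus substrate was added, then incubated 0.5 h at room temperature. IC50 came from a four-parameter logistic fit.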

[2] = Metabolic stability in vitro in rat hepatocytes; type: in vitro ADME; conditions: read-out: Intrinsic clearance
Experimental: The concentration of each compound in the reaction system was measured by LC/MS/MS to calculate the intrinsic clearance of the compounds to be tested, and evaluate the metabolic stability in vitro in rat hepatocytes.
To the incubation plate, 198 μL of 0.5×10^6 cells/mL rat hepatocyte mixture and 2.0 μL of 100 μM compound to be tested or positive control were added to initiate reaction. Incubation was performed at 900 rpm at 37° C. […] Then the mixture was vortex-mixed for 5 min. […] Then 100 μL of supernatant of each compound was transferred to a 96-well sample plate, and 100 μL of purified water was added to dilute the sample. The resulting samples were quantified by ion chromatograms. The residual rate was calculated from peak areas of the compounds to be tested or the positive control. The slope k was determined using Microsoft Excel by linear regression of natural logarithm of the residual rate to the incubation time. The intrinsic clearance (in vitro CLint, μL/min/10^6 cells) was calculated from the slope value according to the following equation: […]

[3] = Metabolic stability in vitro in human hepatocytes; type: in vitro ADME; conditions: read-out: Intrinsic clearance
Experimental: The concentration of each compound in the reaction system was measured by LC/MS/MS to calculate the intrinsic clearance of the compounds to be tested, and evaluate the metabolic stability in vitro in human hepatocytes.
To the incubation plate, 198 μL of 0.5×10^6 cells/mL human hepatocyte mixture and 2.0 μL of 100 μM compound to be tested or positive control were added to initiate reaction. Incubation was performed at 900 rpm at 37° C. […] Then the mixture was vortex-mixed for 5 min. […] Then 100 μL of supernatant of each compound was transferred to a 96-well sample plate, and 100 μL of purified water was added to dilute the sample.
The resulting samples were quantified by ion chromatograms. The residual rate was calculated from peak areas of the compounds to be tested or the positive control. The slope k was determined using Microsoft Excel by linear regression of natural logarithm of the residual rate to the incubation time. The intrinsic clearance (in vitro CLint, μL/min/10^6 cells) was calculated from the slope value according to the following equation: […]

[4] = Solubility (PBS pH 7.4) of compounds from DMSO solution; type: physicochemical; conditions: aqueous buffer, kinetic from dmso stock, 10 mM DMSO solution into PBS pH 7.4, 25° C., read-out: Calculated solubility
Experimental: The solubility (PBS pH 7.4) of a compound to be tested was determined by LC/MS/MS. 6 μL of 10 mM DMSO solution of the compound to be tested was mixed with 194 μL of DMSO to prepare 300 μM compound solution. In 490 μL of water and acetonitrile (1:1) containing an internal standard, 5 μL of the solution and 5 μL of PBS pH 7.4 solution were mixed to prepare 3 μM standard concentration solution of the sample to be tested. The dilution factor of the standard solution can be adjusted according to the strength of response signals in LC/MS.
To 485 μL of PBS pH 7.4 solution, 15 μL of 10 mM DMSO solution of the compound to be tested was added. […] After shaking, the stir bar was removed, and the sample was transferred to a filter plate and filtered using a vacuum manifold. In 490 μL of water and acetonitrile (1:1) containing an internal standard, 5 μL of filtrate and 5 μL of PBS pH 7.4 solution were mixed to prepare a solution to be tested. The dilution factor can be adjusted according to the solubility value and the strength of response signals in LC/MS.
The resulting samples were determined by LC/MS/MS. The sample solubility was calculated from peak areas of the solution of the compound to be tested and the standard concentration solution, according to the following equation:
[formula] • [Sample] is the solubility of the sample to be tested; • Area ratiosample is the ratio of the peak area of sample in the sample to be tested to the peak area of the internal standard; • INJ VOL STD is the injection volume of the standard concentration solution; • DFsample is the dilution factor of the solution of the sample to be tested; • [STD] is the concentration of the standard concentration solution; • INJ VOLsample is the injection volume of the solution of the sample to be tested; and • Area ratio STD is the ratio of the peak area of sample in the standard concentration solution to the peak area of the internal standard.

PXR = PXR (Homo sapiens (Human), UniProt O75469); assay: Potential for PXR activation in DPX2 cells; type: cell-based; conditions: 10 μM, versus 20 μM rifampicin
Chain of PXR (O75469 whole entry): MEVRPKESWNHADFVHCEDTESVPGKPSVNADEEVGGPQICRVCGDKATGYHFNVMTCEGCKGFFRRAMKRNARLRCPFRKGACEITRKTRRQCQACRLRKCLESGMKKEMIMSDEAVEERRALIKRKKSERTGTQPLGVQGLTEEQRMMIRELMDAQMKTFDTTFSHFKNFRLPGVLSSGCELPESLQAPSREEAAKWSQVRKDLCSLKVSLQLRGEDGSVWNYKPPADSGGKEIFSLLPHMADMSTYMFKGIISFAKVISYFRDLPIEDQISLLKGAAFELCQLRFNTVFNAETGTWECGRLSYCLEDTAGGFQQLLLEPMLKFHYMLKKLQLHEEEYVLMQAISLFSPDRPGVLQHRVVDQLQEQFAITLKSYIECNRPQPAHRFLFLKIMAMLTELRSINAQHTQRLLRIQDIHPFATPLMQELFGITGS
Experimental: DMSO solutions of the compounds to be tested and the control compound rifampicin solution were prepared, and diluted with Puracyp dosing medium (Puracyp, Cat. No: D-500-100) at 37° C. to respective test concentrations. The final concentrations of the compounds to be tested were 30 μM, 10 μM, and 1 μM, respectively, and the final concentration of rifampicin was 20 μM. The final concentration of DMSO in the test solution was 0.1%. In addition, 0.1% DMSO solution prepared with Puracyp dosing medium was used as a control.
DPX2 cells were suspended in Puracyp Culture medium (Puracyp, Cat No.: C-500-100) at a cell density of 4.5×10^5 cell/mL. Then, the suspension was placed on a 96-well culture plate at 100 μL/well for incubation at 37° C. for 24 h. The medium in appropriate wells of the 96-well culture plate was replaced (three times per well) by 100 μL of solution of the compounds to be tested and a control compound solution. After replacement, the plate was incubated at 37° C. for 24 h. The medium was then replaced (three times per well) by a newly prepared test solution of the compounds to be tested and a rifampicin test solution, and the plate was incubated at 37° C. for 24 h.
The medium in the 96-well culture plate was pipetted and washed twice with PBS. To each well, 50 μL of reagent diluted as required by CellTiter-Fluor™ Cell Viability Assay Kit (Promega, Cat. No.: G6082) was added, and incubated at 37° C. for 0.5 h. The 96-well plate was cooled to room temperature, and the fluorescence value of each well at 505 nm was measured in a fluorescence mode with a microplate reader at an excitation wavelength of 400 nm. Then, 50 μL of reagent prepared as required by One-Glo Luciferase Assay System (Promega, Cat. No.: E6120) was added to each well, and the mixture was incubated at room temperature for 5 min. The luminescence value of each well was read by using a lumen meter.
Normalized luciferase activity was determined by RLU/RFU, and the RLU and RFU of the samples were mean values of duplicate wells, respectively.
[formula] • Fold of activation: fold of activation of normalized luciferase; • RLUtest: measured luminescence value of test wells at each test dose of test compounds; • RLUvehicle: measured luminescence value of test wells when tested with the control DMSO solution; • RFUtest: measured fluorescence value of test wells at each test dose of test compounds; • RFUvehicle: measured fluorescence value of test wells when tested with the control DMSO solution.
The percentage of positive control was calculated as follows:
% Positive control=(fold activationtest compound−1)/(fold activationpositive control compound−1)×100% • % Positive control: percentage of PXR activation compared with 20 μM rifampicin activation at each test dose of test compounds; • Fold activationtest compound: fold of activation of normalized luciferase at each test dose of test compounds; • Fold activationpositive control compound: fold of activation of normalized luciferase of test compounds under 20 μM rifampicin.
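Throughout, for GI50: MDA-MB-436 proliferation over 7 days with compound, viability read as ATP luminescence (CellTiter-Glo), inhibition relative to DMSO-only wells, day 0 signal as background, GI50 from four-parameter fit.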

Chain of USP1 (Recombinant Human His6-USP1/His6-UAF1 Complex Protein) (O94782 whole entry): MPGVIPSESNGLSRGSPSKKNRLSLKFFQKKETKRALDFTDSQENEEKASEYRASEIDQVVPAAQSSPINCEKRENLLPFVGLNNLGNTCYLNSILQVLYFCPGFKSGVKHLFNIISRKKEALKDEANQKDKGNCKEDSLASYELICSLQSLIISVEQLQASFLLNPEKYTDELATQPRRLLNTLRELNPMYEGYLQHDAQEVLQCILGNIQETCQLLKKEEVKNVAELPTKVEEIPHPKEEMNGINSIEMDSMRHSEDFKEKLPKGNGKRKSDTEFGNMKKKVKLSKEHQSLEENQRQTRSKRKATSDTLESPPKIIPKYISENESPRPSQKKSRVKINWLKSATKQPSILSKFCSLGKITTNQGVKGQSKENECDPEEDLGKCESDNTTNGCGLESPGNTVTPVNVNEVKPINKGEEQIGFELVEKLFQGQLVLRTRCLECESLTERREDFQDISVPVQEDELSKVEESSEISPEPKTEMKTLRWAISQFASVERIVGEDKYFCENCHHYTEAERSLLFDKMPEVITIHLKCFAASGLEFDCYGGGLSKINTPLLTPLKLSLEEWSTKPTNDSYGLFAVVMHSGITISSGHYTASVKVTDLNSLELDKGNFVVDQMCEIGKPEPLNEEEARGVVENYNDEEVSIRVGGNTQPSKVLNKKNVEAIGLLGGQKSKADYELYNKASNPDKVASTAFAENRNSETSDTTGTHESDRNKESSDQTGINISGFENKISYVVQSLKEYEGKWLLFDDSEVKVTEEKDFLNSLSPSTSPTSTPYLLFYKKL
Chain of USP1 (Recombinant Human His6-USP1/His6-UAF1 Complex Protein) (Q8TAF3 whole entry partner): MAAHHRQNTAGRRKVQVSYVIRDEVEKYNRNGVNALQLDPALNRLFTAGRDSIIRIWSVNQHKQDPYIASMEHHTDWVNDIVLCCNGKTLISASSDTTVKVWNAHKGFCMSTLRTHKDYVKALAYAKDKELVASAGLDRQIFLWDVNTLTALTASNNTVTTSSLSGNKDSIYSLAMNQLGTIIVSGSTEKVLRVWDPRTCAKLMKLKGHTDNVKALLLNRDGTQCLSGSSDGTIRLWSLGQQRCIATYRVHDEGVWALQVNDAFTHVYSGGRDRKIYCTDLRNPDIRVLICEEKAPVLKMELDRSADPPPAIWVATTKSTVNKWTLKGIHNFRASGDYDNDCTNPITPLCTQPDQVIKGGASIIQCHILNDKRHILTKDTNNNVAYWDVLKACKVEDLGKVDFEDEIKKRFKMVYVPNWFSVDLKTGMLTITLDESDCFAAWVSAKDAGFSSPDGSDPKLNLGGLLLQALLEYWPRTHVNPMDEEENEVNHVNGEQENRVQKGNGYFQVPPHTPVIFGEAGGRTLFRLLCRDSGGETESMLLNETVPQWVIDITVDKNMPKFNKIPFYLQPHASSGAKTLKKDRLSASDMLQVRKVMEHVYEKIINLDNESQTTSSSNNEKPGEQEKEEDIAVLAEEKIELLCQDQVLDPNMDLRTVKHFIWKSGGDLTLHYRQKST
Experimental for MDA-MB-436 cells: Assay based on CellTiter-Glo luminescent cell viability assay system.
The assay kit (CellTiter-Glo® Luminescent Cell Viability Assay) was purchased from Promega, with Cat. No. of G7573, and was stored at −30° C. after subpackage. The kit is a homogeneous assay method for assaying the number of viable cells in a culture based on quantitative determination of ATP. The kit produces a luminescence signal proportional to the amount of ATP present, and the amount of ATP is directly proportional to the number of cells in the culture.
The cultured cells were trypsinized, collected and centrifuged, then resuspended at an adjusted concentration in a culture solution (DMEM+10% FBS), and cultured overnight on a 384-well plate (400 cells/20 μl/well) in a cell incubator with 5% CO2 at 37° C. An ECHO instrument was used to added the compound and pure DMSO onto each well of the 384-well plate. The total volume of the compound and DMSO is 100 nL, and the instrument obtains gradient diluted sample concentrations through different ratios. To each well, 30 μL of culture solution was added, and after mixing by centrifugal oscillation and re-centrifugation, the cells were cultured in a cell incubator for 7 days (one column of cells was subjected to CTG assay on the day of dosing). After day 7, 25 μL of CTG assay solution was added to each well, and after mixing by centrifugal oscillation and re-centrifugation, the cells were placed at room temperature away from light for 10 min. In terms of chemiluminescence signals, an Envision plate reader (PerkinElmer, emission wavelength: 400-700 nm) was used to measure a signal in each well. The chemiluminescence value [RLU]cpd on day 7 was obtained for the treatment group, the chemiluminescence value [RLU]cell on day 7 was obtained for the non-treatment group (given DMSO only), and the chemiluminescence value [RLU]background on day 0 was obtained for the parallel non-treatment group (given DMSO only) by CTG assay on day 0. […] In the following equation, x represents the concentration of the compound in a logarithmic form; and F(x) represents an effect value (inhibition rate of proliferation at the concentration): F(x)=(A+((B−A)/(1+((C/x)^D)))). A, B, C, and D are four parameters.

pIC50 [1]	hepatocyte CLint at 1 μM [2] [µL/min/1e6 cells]	GI50 (MDA-MB-436 cells) [nM]	hepatocyte CLint at 1 μM [3] [µL/min/1e6 cells]	solubility at 2 h [4] [µM]	PXR activation (% Positive control) (PXR)	Structure (SMILES)
7.84	6.4	19.9	4.85	–	–	COc1ncnc(C2CC2)c1-c1ncc2c(n1)N(Cc1ccc(-c3nc(C(F)(F)F)cn3C)cc1)C(=O)C(C)(C)O2 [Compound 22, 2-(4-cyclopropyl-6-methoxypyrimidin-5-yl)-6,6-dimethyl-8-(4-(1-methyl-4-(trifluoromethyl)-1H-imidazol-2-yl)benzyl)-6H-pyrimido[5,4-b][1,4]oxazin-7(8H)-one]
7.38	4.2	41.1	–	115 (≈ 64.9 µg/mL)	–	COc1ncnc(C2CC2)c1-c1ncc2c(n1)N(Cc1ccc(-c3nc(C(F)(F)F)cn3C)cc1)C(C)C(=O)N2C (stereo not shown) [Compound 26, 2-(4-cyclopropyl-6-methoxypyrimidin-5-yl)-5,7-dimethyl-8-(4-(1-methyl-4-(trifluoromethyl)-1H-imidazol-2-yl)benzyl)-7,8-dihydropteridin-6(5H)-one]
7.47	6.3	51.1	–	73 (≈ 42.8 µg/mL)	–	COc1ncnc(C2CC2)c1-c1ncc2c(n1)N(Cc1ccc(-c3nc(C(F)(F)F)cn3C(F)F)cc1)CC(=O)N2C [Compound 28, 2(4-cyclopropyl-6-methoxypyrimidin-5-yl)-8-((4-(1-(difluoromethyl)-4-(trifluoromethyl)-1H-imidazol-2-yl)phenyl)methyl)-5-methyl-7,8-dihydropteridin-6(5H)-one]
7.50	4.3	53.8	–	–	–	CCN1C(=O)CN(Cc2ccc(-c3nc(C(F)(F)F)cn3C)cc2)c2nc(-c3c(OC)ncnc3C3CC3)ncc21 [Compound 33, 2-(4-cyclopropyl-6-methoxypyrimidin-5-yl)-5-ethyl-8-(4-(1-methyl-4-(trifluoromethyl)-1H-imidazol-2-yl)benzyl)-7,8-dihydropteridin-6(5H)-one]
7.65	–	32.6	–	–	3.2	COc1ncnc(C2CC2)c1-c1ncc2c(n1)N(Cc1ccc(-n3nc(C(F)(F)F)cc3C)cc1)CC(=O)N2C [Compound 43, 2-(4-cyclopropyl-6-methoxypyrimidin-5-yl)-5-methyl-8-(4-(5-methyl-3-(trifluoromethyl)-1H-pyrazol-1-yl)benzyl)-7,8-dihydropteridin-6(5H)-one]
7.70	–	53.2	4.26	88 (≈ 50.7 µg/mL)	–	COc1ncnc(C2CC2)c1-c1ncc2c(n1)N(Cc1ccc3c(c1)CCCn1cc(C(F)(F)F)nc1-3)CC(=O)N2C [Compound 45, 2-(4-cyclopropyl-6-methoxypyrimidin-5-yl)-5-methyl-8-((2-(trifluoromethyl)-6,7-dihydro-5H-benzo[c]imidazo[1,2-a]azepin-9-yl)methyl)-7,8-dihydropteridin-6(5H)-one]
7.63	–	59.6	–	–	20.9	COc1ncnc(C2CC2)c1-c1ncc2c(n1)N(Cc1ccc(-c3nc(C(F)(F)F)cn3C)cc1)C(=O)OC21CC1 [Compound 52, 7′-(4-cyclopropyl-6-methoxypyrimidin-5-yl)-1′-(4-(1-methyl-4-(trifluoromethyl)-1H-imidazol-2-yl)benzyl)spiro[cyclopropane-1,4′-pyrimido[4,5-d][1,3]oxazine]-2′(1′H)-one]
